Assay results reported in paper PMC6437697 (Journal of Medicinal Chemistry, 2019).

Key:
Test in all cases: KINOMEscan
Type in all cases: binding
Conditions in all cases: read-out: % control activity remaining
CDC2L2 = molecular target: T1, CDC2L2 (Homo sapiens, UniProt Q9UQ88)
T1 construct: purchased Eurofins DiscoverX KINOMEscan
T1 sequence (Q9UQ88 1-783): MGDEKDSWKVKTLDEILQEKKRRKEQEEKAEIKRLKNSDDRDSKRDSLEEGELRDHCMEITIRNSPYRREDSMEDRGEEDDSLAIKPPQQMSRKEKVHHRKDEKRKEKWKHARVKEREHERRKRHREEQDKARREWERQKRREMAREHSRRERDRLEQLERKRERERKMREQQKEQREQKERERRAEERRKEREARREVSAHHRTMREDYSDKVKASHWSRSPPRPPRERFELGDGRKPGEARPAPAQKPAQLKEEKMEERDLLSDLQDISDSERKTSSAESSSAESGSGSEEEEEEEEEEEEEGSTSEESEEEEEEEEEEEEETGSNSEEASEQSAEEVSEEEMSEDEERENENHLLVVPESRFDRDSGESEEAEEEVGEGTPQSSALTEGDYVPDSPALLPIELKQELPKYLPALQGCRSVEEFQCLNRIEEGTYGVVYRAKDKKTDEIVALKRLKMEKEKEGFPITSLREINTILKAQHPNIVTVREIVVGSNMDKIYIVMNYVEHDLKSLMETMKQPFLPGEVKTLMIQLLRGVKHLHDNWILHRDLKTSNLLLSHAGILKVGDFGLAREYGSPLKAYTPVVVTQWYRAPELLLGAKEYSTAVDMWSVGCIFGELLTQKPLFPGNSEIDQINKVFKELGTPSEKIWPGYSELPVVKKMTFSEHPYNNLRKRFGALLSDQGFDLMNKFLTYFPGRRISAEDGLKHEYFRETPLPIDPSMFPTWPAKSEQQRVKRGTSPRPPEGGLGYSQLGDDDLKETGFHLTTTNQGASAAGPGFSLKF

CDKL3 = molecular target: T2, CDKL3 (Homo sapiens, UniProt Q8IVW4)
T2 construct: purchased Eurofins DiscoverX KINOMEscan
T2 sequence (Q8IVW4 whole entry): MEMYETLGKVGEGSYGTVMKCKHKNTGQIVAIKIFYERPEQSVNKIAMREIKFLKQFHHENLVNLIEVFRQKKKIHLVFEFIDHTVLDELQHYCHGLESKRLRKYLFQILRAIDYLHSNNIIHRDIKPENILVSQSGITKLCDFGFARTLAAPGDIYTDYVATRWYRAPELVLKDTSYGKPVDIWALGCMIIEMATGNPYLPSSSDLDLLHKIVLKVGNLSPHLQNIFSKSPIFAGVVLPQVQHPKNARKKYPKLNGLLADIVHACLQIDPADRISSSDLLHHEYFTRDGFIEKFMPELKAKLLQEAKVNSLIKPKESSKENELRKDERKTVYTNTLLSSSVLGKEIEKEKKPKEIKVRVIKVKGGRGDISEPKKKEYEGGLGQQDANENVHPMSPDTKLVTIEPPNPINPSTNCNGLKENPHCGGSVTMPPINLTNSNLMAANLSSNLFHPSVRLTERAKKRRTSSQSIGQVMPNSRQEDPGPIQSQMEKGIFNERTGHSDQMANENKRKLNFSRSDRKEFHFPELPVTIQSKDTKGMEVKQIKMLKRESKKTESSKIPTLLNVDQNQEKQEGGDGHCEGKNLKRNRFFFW

EGFR(G719S) = molecular target: T3, EGFR(G719S) (Homo sapiens, UniProt P00533, G719S)
T3 construct: purchased Eurofins DiscoverX KINOMEscan

EIF2AK1 = molecular target: T4, EIF2AK1 (Homo sapiens, UniProt Q9BQI3)
T4 construct: purchased Eurofins DiscoverX KINOMEscan
T4 sequence (Q9BQI3 whole entry): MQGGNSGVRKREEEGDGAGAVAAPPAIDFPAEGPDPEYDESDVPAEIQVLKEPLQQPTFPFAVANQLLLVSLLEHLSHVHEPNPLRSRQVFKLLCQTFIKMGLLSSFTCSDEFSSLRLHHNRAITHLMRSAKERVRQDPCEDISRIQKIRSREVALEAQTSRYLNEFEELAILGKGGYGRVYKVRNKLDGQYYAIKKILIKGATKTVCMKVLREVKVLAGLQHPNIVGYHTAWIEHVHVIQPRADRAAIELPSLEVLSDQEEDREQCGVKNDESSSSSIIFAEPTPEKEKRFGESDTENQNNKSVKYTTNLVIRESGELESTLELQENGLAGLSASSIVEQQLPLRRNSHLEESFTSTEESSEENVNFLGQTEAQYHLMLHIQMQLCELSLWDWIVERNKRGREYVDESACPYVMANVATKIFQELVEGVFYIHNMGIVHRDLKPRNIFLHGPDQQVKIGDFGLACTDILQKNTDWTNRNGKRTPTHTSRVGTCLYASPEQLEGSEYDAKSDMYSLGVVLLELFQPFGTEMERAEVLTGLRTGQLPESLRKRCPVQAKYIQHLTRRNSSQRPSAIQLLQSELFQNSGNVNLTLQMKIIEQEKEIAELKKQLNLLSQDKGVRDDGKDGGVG

EPHB4 = molecular target: T5, EPHB4 (Homo sapiens, UniProt P54760)
T5 construct: purchased Eurofins DiscoverX KINOMEscan
T5 sequence (P54760 16-987): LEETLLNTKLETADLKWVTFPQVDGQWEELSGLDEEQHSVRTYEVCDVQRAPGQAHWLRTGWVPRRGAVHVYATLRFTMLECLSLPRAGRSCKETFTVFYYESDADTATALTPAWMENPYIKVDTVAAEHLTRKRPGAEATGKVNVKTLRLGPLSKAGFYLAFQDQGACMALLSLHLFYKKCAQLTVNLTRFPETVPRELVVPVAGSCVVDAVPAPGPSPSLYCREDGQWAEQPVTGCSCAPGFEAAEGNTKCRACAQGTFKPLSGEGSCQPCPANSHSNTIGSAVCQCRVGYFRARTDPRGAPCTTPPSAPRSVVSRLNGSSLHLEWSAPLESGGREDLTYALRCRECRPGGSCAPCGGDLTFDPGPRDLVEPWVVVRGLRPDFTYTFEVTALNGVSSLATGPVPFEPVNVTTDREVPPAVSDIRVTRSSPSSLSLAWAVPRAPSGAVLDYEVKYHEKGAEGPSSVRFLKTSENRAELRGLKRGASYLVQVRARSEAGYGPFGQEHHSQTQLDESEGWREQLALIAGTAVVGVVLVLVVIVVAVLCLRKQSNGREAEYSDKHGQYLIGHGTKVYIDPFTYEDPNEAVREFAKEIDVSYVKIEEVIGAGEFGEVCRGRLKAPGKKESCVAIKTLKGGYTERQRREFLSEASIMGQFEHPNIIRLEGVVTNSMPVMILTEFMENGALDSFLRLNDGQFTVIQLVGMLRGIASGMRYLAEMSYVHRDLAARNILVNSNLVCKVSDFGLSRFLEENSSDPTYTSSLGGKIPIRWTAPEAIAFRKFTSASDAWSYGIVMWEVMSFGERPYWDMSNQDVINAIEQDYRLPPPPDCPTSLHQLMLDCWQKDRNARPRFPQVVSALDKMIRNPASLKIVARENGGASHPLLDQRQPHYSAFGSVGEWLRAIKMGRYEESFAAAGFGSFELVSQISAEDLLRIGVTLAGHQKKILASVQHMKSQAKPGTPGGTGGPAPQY

ITK = molecular target: T6, ITK (Homo sapiens, UniProt Q08881)
T6 construct: purchased Eurofins DiscoverX KINOMEscan
T6 sequence (Q08881 1-620): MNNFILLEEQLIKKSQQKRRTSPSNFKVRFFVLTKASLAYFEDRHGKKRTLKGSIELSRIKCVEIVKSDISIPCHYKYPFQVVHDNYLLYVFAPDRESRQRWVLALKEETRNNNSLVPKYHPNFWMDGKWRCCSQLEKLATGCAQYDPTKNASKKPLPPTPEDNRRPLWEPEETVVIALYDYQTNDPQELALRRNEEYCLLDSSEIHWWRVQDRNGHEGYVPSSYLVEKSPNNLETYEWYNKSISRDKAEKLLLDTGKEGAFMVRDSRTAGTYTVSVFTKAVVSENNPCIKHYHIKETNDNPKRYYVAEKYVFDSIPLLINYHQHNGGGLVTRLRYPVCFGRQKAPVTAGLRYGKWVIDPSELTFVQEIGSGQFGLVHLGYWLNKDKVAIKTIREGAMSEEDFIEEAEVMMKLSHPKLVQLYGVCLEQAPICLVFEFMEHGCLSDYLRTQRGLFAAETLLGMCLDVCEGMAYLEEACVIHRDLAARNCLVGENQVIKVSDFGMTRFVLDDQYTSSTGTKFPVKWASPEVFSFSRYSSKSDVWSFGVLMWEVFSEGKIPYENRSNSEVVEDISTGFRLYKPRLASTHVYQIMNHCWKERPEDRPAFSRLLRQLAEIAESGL

KIT(D816V) = molecular target: T7, KIT(D816V) (Homo sapiens, UniProt P10721, D816V)
T7 construct: purchased Eurofins DiscoverX KINOMEscan
T7 sequence (P10721 26-976 D816V): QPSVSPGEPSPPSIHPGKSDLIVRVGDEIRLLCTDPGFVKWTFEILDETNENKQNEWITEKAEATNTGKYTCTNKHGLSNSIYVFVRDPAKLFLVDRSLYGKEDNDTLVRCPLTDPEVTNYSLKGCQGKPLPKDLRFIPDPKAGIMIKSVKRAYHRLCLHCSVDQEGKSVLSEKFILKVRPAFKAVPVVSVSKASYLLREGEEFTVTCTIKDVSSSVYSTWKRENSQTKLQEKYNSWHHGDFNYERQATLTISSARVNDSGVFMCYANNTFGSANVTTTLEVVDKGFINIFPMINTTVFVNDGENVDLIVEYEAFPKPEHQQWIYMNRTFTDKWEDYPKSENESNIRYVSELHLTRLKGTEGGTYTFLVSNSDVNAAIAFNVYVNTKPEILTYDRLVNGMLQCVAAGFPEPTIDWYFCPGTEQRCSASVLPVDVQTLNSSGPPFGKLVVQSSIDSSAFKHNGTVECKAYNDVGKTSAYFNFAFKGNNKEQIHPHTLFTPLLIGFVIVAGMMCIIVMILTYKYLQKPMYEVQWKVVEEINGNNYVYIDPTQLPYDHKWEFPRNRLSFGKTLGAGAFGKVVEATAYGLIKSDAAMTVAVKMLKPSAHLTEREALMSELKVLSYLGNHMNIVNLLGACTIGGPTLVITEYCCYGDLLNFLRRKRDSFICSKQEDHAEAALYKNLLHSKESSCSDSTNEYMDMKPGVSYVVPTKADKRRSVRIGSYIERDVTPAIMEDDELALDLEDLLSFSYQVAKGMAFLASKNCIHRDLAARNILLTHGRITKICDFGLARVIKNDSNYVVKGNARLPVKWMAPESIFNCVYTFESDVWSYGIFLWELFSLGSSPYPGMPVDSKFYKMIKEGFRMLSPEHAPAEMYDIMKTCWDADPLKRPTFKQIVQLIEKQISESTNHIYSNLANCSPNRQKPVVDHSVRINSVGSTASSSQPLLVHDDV

LIMK2 = molecular target: T8, LIMK2 (Homo sapiens, UniProt P53671)
T8 construct: purchased Eurofins DiscoverX KINOMEscan
T8 sequence (P53671 whole entry): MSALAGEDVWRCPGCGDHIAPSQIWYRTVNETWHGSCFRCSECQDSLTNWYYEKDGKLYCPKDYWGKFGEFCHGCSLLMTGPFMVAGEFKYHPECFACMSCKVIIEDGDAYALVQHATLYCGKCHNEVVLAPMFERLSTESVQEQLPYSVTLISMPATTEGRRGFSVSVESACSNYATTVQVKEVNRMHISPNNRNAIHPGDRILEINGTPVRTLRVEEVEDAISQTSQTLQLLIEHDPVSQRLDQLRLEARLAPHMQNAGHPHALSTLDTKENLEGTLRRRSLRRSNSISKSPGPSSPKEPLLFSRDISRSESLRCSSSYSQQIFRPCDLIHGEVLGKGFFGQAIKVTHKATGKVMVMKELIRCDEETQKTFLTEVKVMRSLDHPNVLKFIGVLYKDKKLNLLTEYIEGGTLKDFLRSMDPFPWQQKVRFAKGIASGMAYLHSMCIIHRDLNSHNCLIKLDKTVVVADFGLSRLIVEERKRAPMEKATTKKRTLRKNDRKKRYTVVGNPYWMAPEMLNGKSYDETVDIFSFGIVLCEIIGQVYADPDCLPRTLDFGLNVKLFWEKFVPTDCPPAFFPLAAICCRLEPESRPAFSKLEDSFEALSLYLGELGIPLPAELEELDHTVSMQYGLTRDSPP

p38-beta = molecular target: T9, p38-beta (Homo sapiens, UniProt Q15759)
T9 construct: purchased Eurofins DiscoverX KINOMEscan
T9 sequence (Q15759 whole entry): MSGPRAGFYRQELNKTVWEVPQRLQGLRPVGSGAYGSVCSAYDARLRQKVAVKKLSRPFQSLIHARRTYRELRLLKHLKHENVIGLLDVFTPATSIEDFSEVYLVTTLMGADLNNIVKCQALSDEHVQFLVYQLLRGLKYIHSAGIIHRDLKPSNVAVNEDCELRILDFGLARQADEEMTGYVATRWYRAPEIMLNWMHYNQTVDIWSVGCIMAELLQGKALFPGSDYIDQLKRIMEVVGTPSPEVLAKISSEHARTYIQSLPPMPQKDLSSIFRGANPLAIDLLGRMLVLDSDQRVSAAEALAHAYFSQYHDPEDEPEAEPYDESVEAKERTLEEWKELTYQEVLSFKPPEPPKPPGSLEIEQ

PIK3CA(H1047Y) = molecular target: T10, PIK3CA(H1047Y) (Homo sapiens, UniProt P42336, H1047Y)
T10 construct: purchased Eurofins DiscoverX KINOMEscan
T10 sequence (P42336 whole entry H1047Y): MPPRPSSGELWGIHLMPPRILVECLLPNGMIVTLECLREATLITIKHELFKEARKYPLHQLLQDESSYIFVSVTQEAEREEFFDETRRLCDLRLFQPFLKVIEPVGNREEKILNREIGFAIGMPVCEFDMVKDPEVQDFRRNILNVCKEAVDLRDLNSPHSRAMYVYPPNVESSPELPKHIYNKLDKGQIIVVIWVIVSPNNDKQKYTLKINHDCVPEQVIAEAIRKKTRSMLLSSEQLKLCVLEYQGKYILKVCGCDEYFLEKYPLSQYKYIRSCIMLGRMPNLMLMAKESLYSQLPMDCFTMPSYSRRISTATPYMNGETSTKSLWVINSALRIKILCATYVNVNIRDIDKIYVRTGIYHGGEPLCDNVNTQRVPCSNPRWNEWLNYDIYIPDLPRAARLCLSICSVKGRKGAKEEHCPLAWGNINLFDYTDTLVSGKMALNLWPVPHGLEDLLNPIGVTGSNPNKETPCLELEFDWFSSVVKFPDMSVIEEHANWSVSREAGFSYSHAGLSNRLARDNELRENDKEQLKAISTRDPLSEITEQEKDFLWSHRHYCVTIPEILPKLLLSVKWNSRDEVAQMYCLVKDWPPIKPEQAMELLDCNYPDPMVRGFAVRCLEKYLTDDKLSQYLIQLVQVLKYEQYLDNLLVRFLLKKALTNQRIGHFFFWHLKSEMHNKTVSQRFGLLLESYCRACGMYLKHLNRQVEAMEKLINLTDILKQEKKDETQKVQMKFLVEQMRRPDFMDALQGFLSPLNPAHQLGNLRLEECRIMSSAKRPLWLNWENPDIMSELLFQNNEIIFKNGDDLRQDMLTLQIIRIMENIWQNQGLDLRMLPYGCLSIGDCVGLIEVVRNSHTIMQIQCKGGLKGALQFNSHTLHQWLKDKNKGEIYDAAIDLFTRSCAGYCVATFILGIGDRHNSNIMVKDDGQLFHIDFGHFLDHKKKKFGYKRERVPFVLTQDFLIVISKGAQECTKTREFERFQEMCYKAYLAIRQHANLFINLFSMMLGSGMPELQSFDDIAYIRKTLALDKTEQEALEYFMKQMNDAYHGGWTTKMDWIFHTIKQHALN

PRKCQ = molecular target: T11, PRKCQ (Homo sapiens, UniProt Q04759)
T11 construct: purchased Eurofins DiscoverX KINOMEscan
T11 sequence (Q04759 whole entry): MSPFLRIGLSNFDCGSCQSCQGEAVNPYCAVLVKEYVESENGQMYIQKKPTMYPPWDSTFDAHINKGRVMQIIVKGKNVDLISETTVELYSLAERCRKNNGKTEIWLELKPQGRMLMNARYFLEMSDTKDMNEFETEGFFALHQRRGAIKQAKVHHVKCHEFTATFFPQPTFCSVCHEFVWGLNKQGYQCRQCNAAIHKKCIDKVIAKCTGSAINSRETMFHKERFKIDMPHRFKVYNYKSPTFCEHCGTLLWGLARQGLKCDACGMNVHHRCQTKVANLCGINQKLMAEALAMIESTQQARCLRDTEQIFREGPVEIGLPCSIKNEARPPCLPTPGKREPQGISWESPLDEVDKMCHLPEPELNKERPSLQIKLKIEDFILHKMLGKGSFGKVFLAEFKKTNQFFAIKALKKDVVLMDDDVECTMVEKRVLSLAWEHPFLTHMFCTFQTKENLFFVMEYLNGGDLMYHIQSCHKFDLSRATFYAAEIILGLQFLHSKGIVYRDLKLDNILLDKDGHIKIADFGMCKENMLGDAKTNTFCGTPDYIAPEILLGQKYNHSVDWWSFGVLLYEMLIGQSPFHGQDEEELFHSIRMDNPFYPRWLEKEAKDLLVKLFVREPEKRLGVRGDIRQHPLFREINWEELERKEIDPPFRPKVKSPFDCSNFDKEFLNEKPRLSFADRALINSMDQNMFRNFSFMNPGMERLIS

CN1CCC(CNc2cc(Cl)nn3c(-c4cc5nc(Nc6ccccc6)[nH]c5cc4F)cnc23)CC1 [compound 31, 6-Chloro-3-(6-fluoro-2-(phenylamino)-1H-benzo[d]imidazol-5-yl)-N-((1-methylpiperidin-4-yl)methyl)imidazo[1,2-b]pyridazin-8-amine]
remaining binding at 1 µM (CDC2L2): 90% | remaining binding at 1 µM (CDKL3): 90% | remaining binding at 1 µM (EGFR(G719S)): 71% | remaining binding at 1 µM (EIF2AK1): 78% | remaining binding at 1 µM (EPHB4): 100% | remaining binding at 1 µM (ITK): 91% | remaining binding at 1 µM (KIT(D816V)): 81% | remaining binding at 1 µM (LIMK2): 100% | remaining binding at 1 µM (p38-beta): 99% | remaining binding at 1 µM (PIK3CA(H1047Y)): 100% | remaining binding at 1 µM (PRKCQ): 100%

O=C(CN1CCOCC1)N[C@H]1CC[C@H](Nc2cc(Cl)nn3c(-c4ccc5[nH]ncc5c4)cnc23)CC1 [compound 26]
remaining binding at 1 µM (CDC2L2): 99% | remaining binding at 1 µM (CDKL3): 88% | remaining binding at 1 µM (EGFR(G719S)): 97% | remaining binding at 1 µM (EIF2AK1): 78% | remaining binding at 1 µM (EPHB4): 95% | remaining binding at 1 µM (ITK): 84% | remaining binding at 1 µM (KIT(D816V)): 29% | remaining binding at 1 µM (LIMK2): 85% | remaining binding at 1 µM (p38-beta): 94% | remaining binding at 1 µM (PIK3CA(H1047Y)): 82% | remaining binding at 1 µM (PRKCQ): 85%

Clc1cc(NCC2CC2)c2ncc(-c3ccc4[nH]ncc4c3)n2n1 [compound 2, 6-Chloro-N-(cyclopropylmethyl)-3-(1H-indazol-5-yl)imidazo[1,2-b]pyridazin-8-amine]
remaining binding at 1 µM (CDC2L2): 100% | remaining binding at 1 µM (CDKL3): 100% | remaining binding at 1 µM (EGFR(G719S)): 85% | remaining binding at 1 µM (EIF2AK1): 100% | remaining binding at 1 µM (EPHB4): 79% | remaining binding at 1 µM (ITK): 92% | remaining binding at 1 µM (KIT(D816V)): 78% | remaining binding at 1 µM (LIMK2): 94% | remaining binding at 1 µM (p38-beta): 94% | remaining binding at 1 µM (PIK3CA(H1047Y)): 89% | remaining binding at 1 µM (PRKCQ): 94%
